Source: US10479780B2, “Aminopyrazole derivatives” (Chugai Seiyaku Kabushiki Kaisha, priority 2015, dated 2019)
Where two headings read alike, the source gives them in different places.

Assays:
Type in all cases: biochemical
human Yes1 enzyme = biological target: T1, human Yes1 enzyme (Homo sapiens, UniProt P07947); assay: Yes1 enzyme inhibitory activity (time-resolved fluorometry, biotinylated peptide phosphorylation); settings: read-out: YES_IC50
T1 construct: made in house
In short: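 Inhibition was expressed against a compound-free control to give IC50, using TR-FRET read-out (Eu-cryptate anti-pTyr antibody, streptavidin-XL665).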

human Src enzyme = biological target: T2, human Src enzyme (Homo sapiens, UniProt P12931); assay: Src enzyme inhibitory activity (time-resolved fluorometry, biotinylated peptide phosphorylation); settings: read-out: SRC_IC50
T2 construct: purchased Carna Biosciences, Inc. 08-173
T2 sequence (P12931 whole entry): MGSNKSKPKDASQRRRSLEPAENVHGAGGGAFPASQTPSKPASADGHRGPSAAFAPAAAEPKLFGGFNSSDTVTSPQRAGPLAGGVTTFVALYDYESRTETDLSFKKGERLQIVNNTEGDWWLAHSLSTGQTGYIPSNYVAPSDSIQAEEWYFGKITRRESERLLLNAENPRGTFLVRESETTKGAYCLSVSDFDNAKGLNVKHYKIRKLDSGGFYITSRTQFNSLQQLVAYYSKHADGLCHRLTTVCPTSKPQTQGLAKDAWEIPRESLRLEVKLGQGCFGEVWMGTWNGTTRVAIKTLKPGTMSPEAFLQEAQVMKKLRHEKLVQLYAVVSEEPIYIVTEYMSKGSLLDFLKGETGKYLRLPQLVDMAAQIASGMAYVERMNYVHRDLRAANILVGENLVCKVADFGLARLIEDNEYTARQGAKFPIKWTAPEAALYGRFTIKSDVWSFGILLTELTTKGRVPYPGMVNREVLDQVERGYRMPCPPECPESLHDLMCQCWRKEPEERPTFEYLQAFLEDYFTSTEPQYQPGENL
In short: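 Compounds were tested for blocking tyrosine phosphorylation of a biotinylated peptide substrate by recombinant human Src. Phosphorylated product was quantified by time-resolved fluorometry using europium cryptate and XL665 conjugates, and IC50 was calculated against the compound-free control.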

human Lck enzyme = biological target: T3, human Lck enzyme (Homo sapiens, UniProt P06239); assay: Lck enzyme inhibitory activity (time-resolved fluorometry, biotinylated peptide phosphorylation); settings: read-out: LCK_IC50
T3 construct: purchased Carna Biosciences, Inc. 08-170
T3 sequence (P06239 whole entry): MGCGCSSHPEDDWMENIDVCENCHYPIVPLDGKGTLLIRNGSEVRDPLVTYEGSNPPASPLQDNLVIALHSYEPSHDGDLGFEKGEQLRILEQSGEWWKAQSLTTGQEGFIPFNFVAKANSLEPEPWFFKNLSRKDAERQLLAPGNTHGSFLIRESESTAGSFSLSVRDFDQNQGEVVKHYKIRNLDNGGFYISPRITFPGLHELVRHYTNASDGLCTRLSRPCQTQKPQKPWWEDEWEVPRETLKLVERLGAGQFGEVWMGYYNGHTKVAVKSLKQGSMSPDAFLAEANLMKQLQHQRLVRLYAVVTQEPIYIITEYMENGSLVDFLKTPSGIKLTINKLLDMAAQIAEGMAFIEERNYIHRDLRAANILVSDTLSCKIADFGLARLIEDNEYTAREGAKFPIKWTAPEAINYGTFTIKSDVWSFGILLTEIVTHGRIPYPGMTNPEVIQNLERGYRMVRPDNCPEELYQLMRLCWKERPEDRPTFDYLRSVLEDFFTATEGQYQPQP
In short: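 Readout pairs a europium cryptate-labelled anti-phosphotyrosine antibody with XL665-streptavidin, measured by time-resolved fluorescence. IC50 derived from percent inhibition against untreated controls.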

[1] = biotinylated peptide phosphorylation

T1 sequence (P07947 whole entry): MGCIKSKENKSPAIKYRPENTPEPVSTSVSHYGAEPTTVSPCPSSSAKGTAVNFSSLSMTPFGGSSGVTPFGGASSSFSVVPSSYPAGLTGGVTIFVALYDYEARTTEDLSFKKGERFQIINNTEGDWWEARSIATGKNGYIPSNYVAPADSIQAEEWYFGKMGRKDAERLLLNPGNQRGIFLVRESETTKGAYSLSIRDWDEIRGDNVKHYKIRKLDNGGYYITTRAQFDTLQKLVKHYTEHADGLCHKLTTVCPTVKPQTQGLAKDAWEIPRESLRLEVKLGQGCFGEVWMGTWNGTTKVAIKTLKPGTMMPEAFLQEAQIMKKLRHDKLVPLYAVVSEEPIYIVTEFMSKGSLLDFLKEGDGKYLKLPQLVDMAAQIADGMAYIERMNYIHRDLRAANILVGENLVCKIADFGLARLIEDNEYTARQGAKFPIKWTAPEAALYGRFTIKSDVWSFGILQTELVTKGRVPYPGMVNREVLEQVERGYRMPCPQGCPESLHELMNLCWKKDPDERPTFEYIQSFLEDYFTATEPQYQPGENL

Structure (SMILES)	IC50 (human Yes1 enzyme; [1])	IC50 (human Src enzyme; [1])	IC50 (human Lck enzyme; [1])	IC50 (human Yes1 enzyme)	IC50 (human Src enzyme)	IC50 (human Lck enzyme)
Cc1cc(Oc2c(F)cccc2F)ncc1-n1ncc(C(=O)c2cc3cc(N4CCOCC4)c(N4CCCS4(=O)=O)cc3[nH]2)c1N [Example 4-25-008, [5-amino-1-[6-(2,6-difluorophenoxy)-4-methylpyridin-3-yl]pyrazol-4-yl]-[6-(1,1-dioxo-1,2-thiazolidin-2-yl)-5-morpholin-4-yl-1H-indol-2-yl]methanone]	1.5 nM	22 nM	8.2 nM	–	–	–
Cc1cc(Oc2c(F)cccc2F)ncc1-n1ncc(C(=O)c2cc3cc(OC4CCN(C5CCCC5)CC4)c(-c4ccccc4Cl)cc3[nH]2)c1N [Example 5-1-288, [5-amino-1-[6-(2,6-difluorophenoxy)-4-methylpyridin-3-yl]pyrazol-4-yl]-[6-(2-chlorophenyl)-5-(1-cyclopentylpiperidin-4-yl)oxy-1H-indol-2-yl]methanone]	–	–	–	1.9 nM	52 nM	17 nM
Cc1cc(Oc2c(F)cccc2F)ncc1-n1ncc(C(=O)c2cc3cc(OC4CCN(C(C)C)CC4)c(Cl)cc3[nH]2)c1N [Example 5-1-205, [5-amino-1-[6-(2,6-difluorophenoxy)-4-methylpyridin-3-yl]pyrazol-4-yl]-[6-chloro-5-(1-propan-2-ylpiperidin-4-yl)oxy-1H-indol-2-yl] methanone]	–	–	–	0.43 nM	15 nM	7.2 nM
Cc1cncc(S(=O)(=O)Nc2cc3[nH]c(C(=O)c4cnn(-c5cnc(Oc6ccccc6F)cc5C)c4N)cc3cc2C)c1 [Example 5-1-488, N-[2-[5-amino-1-[6-(2-fluorophenoxy)-4-methylpyridin-3-yl]pyrazole-4-carbonyl]-5-methyl-1H-indol-6-yl]-5-methylpyridine-3-sulfonamide]	4.2 nM	520 nM	120 nM	–	–	–
COc1cc2cc(C(=O)c3cnn(-c4c(C)cc(Oc5ccccc5F)cc4F)c3N)[nH]c2cc1NS(=O)(=O)CC(=O)N1CCCC1 [Example 5-1-130, N-[2-[5-amino-1-[2-fluoro-4-(2-fluorophenoxy)-6-methylphenyl]pyrazole-4-carbonyl]-5-methoxy-1H-indol-6-yl]-2-oxo-2-pyrrolidin-1-ylethanesulfonamide]	–	–	–	0.56 nM	13 nM	3.8 nM
Cc1cc(-n2ncc(C(=O)c3cc4cc(OC5CCN(C(C)C)CC5)c(N5CCC(N6CCOCC6)CC5)cc4[nH]3)c2N)c(F)cc1Oc1ccccc1F [Example 5-1-215, [5-amino-1-[2-fluoro-4-(2-fluorophenoxy)-5-methylphenyl]pyrazol-4-yl]-[6-(4-morpholin-4-ylpiperidin-1-yl)-5-(1-propan-2-ylpiperidin-4-yl)oxy-1H-indol-2-yl]methanone]	–	–	–	0.81 nM	82 nM	6 nM
COc1cc2cc(C(=O)c3cnn(-c4ccc(Oc5ccccc5F)cc4C)c3N)[nH]c2cc1NS(C)(=O)=O [Example 4-1-004, N-[2-[5-Amino-1-[4-(2-fluorophenoxy)-2-methylphenyl]pyrazole-4-carbonyl]-5-methoxy-1H-indol-6-yl]methanesulfonamide]	0.52 nM	21 nM	3.4 nM	–	–	–
Cc1cc(Oc2c(F)cccc2F)ncc1-n1ncc(C(=O)c2cc3cc(OC(F)F)c(N4CCC(N5CCOCC5)CC4)cc3[nH]2)c1N [Example 4-25-031, [5-amino-1-[6-(2,6-difluorophenoxy)-4-methylpyridin-3-yl]pyrazol-4-yl]-[5-(difluoromethoxy)-6-(4-morpholin-4-ylpiperidin-1-yl)-1H-indol-2-yl]methanone]	1.9 nM	48 nM	7.2 nM	–	–	–
Cc1cc(-n2ncc(C(=O)c3cc4cc(OCC(F)F)c(-c5cnn(C)c5)cc4[nH]3)c2N)ccc1Oc1ccccc1F [Example 5-1-263, [5-amino-1-[4-(2-fluorophenoxy)-3-methylphenyl]pyrazol-4-yl]-[5-(2,2-difluoroethoxy)-6-(1-methylpyrazol-4-yl)-1H-indol-2-yl]methanone]	–	–	–	19 nM	2600 nM	710 nM
Cc1cc(Oc2ccccc2F)ncc1-n1ncc(C(=O)c2cc3cc(NS(C)(=O)=O)c(OCCN4CCOCC4)cc3[nH]2)c1N [Example 4-2-129]	0.59 nM	3.2 nM	1.4 nM	–	–	–
COCCNS(=O)(=O)Nc1cc2[nH]c(C(=O)c3cnn(-c4ccc(Oc5ccccc5F)cc4C)c3N)cc2cc1F [Example 4-5-007, [5-amino-1-[4-(2-fluorophenoxy)-2-methylphenyl]pyrazol-4-yl]-[5-fluoro-6-(2-methoxyethylsulfamoylamino)-1H-indol-2-yl]methanone]	0.5 nM	33 nM	18 nM	–	–	–
COc1cc2cc(C(=O)c3cnn(-c4cnc(Oc5ccccc5F)cc4C)c3N)[nH]c2cc1NS(=O)(=O)CCCF [Example 4-13-001, N-{2-{5-amino-1-[6-(2-fluorophenoxy)-4-methylpyridin-3-yl]pyrazole-4-carbonyl}-5-methoxy-1H-indol-6-yl}-3-fluoropropane-1-sulfonamide]	2.4 nM	76 nM	26 nM	–	–	–
Cc1cc(Oc2ccccc2F)ccc1-n1ncc(C(=O)c2cc3cc(F)c(N4C(=O)N[C@@H](C)C4=O)cc3[nH]2)c1N [Example 5-1-411, (5S)-3-[2-[5-amino-1-[4-(2-fluorophenoxy)-2-methylphenyl]pyrazole-4-carbonyl]-5-fluoro-1H-indol-6-yl]-5-methylimidazolidine-2,4-dione]	0.73 nM	37 nM	4.2 nM	–	–	–
Cc1cc(-n2ncc(C(=O)c3cc4cc(OC(F)F)c(N5CCN(S(C)(=O)=O)CC5)cc4[nH]3)c2N)ccc1Oc1ccccc1F [Example 5-1-175, [5-amino-1-[4-(2-fluorophenoxy)-3-methylphenyl]pyrazol-4-yl]-[5-(difluoromethoxy)-6-(4-methylsulfoNylpiperazin-1-yl)-1H-indol-2-yl]methanone]	–	–	–	2.4 nM	350 nM	74 nM
Cc1cc(Oc2ccccc2F)ccc1-n1ncc(C(=O)c2cc3cc(OC4CCN(C(C)C)CC4)c(N4CCN(S(C)(=O)=O)CC4)cc3[nH]2)c1N [Example 5-1-191, [5-amino-1-[4-(2-fluorophenoxy)-2-methylphenyl]pyrazol-4-yl]-[6-(4-methylsulfonylpiperazin-1-yl)-5-(1-propan-2-ylpiperidin-4-yl)oxy-1H-indol-2-yl]methanone]	–	–	–	0.48 nM	2.2 nM	1.6 nM
Cc1cc(Oc2ccccc2Cl)cc(F)c1-n1ncc(C(=O)c2cc3cc(NS(C)(=O)=O)c(F)cc3[nH]2)c1N [Example 4-2-102, N-[2-[5-amino-1-[4-(2-chlorophenoxy)-2-fluoro-6-methylphenyl]pyrazole-4-carbonyl]-6-fluoro-1H-indol-5-yl]methanesulfonamide]	0.89 nM	48 nM	3.9 nM	–	–	–
Cc1cc(Oc2ccccc2F)cc(F)c1-n1ncc(C(=O)c2cc3cc(OCC(F)F)c(N4CCC(N5CCOCC5)CC4)cc3[nH]2)c1N [Example 4-25-029, [5-amino-1-[2-fluoro-4-(2-fluorophenoxy)-6-methylphenyl]pyrazol-4-yl]-[5-(2,2-difluoroethoxy)-6-(4-morpholin-4-ylpiperidin-1-yl)-1H-indol-2-yl]methanone]	2.4 nM	21 nM	6.8 nM	–	–	–
Cc1cc(Oc2ccccc2F)ncc1-n1ncc(C(=O)c2cc3cc(F)c(N4CCCS4(=O)=O)cc3[nH]2)c1N [Example 4-9-001, {5-amino-1-[6-(2-fluorophenoxy)-4-methylpyridin-3-yl]pyrazol-4-yl}-[6-(1,1-dioxo-1,2-thiazolidin-2-yl)-5-fluoro-1H-indol-2-yl]methanone]	0.46 nM	13 nM	2.5 nM	–	–	–
Cc1cc(Oc2ccccc2F)ccc1-n1ncc(C(=O)c2cc3cc(F)c(N4C(=O)N[C@@H](Cc5ccccc5)C4=O)cc3[nH]2)c1N [Example 5-1-436, (5S)-3-[2-[5-amino-1-[4-(2-fluorophenoxy)-2-methylphenyl]pyrazole-4-carbonyl]-5-fluoro-1H-indol-6-yl]-5-benzylimidazolidine-2,4-dione]	1.7 nM	230 nM	35 nM	–	–	–
Cc1cc2cc(C(=O)c3cnn(-c4cnc(Oc5c(F)cccc5F)cc4C)c3N)[nH]c2cc1NS(=O)(=O)c1cccc(F)c1 [Example 5-1-551, N-[2-[5-amino-1-[6-(2,6-difluorophenoxy)-4-methylpyridin-3-yl]pyrazole-4-carbonyl]-5-methyl-1H-indol-6-yl]-3-fluorobenzenesulfonamide]	19 nM	970 nM	240 nM	–	–	–
Cc1cc2cc(C(=O)c3cnn(-c4cnc(Oc5c(F)cccc5F)cc4C)c3N)[nH]c2cc1N1C(=O)NC(C)(C)C1=O [Example 5-1-286, 3-[2-[5-amino-1-[6-(2,6-difluorophenoxy)-4-methylpyridin-3-yl]pyrazole-4-carbonyl]-5-methyl-1H-indol-6-yl]-5,5-dimethylimidazolidine-2,4-dione]	–	–	–	2.3 nM	30 nM	5.3 nM
Cc1cc(-n2ncc(C(=O)c3cc4cc(OC5CCN(C(C)C)CC5)c(N5CCN(S(C)(=O)=O)CC5)cc4[nH]3)c2N)ccc1Oc1ccccc1F [Example 5-1-176, [5-amino-1-[4-(2-fluorophenoxy)-3-methylphenyl]pyrazol-4-yl]-[6-(4-methylsulfonylpiperazin-1-yl)-5-(1-propan-2-ylpiperidin-4-yl)oxy-1H-indol-2-yl]methanone]	–	–	–	1 nM	79 nM	11 nM
